{"source": "patent US8921362B2", "about": "“6,7-dialkoxy quinazoline derivatives and methods of treating drug resistant and other tumors” (Natco Pharma Limited, priority 2008, dated 2014)", "experiment_in_all_cases": "KinomeScan", "type_in_all_cases": "binding", "conditions_in_all_cases": "read-out: % Ctrl @ 10000 nM", "key": {"[1]": {"molecular_target": "T1, PRKG2 (Homo sapiens, UniProt Q13237)", "T1 construct": "host or cells: T7 phage in E. coli host derived from BL21", "outline": "(§1)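 Kinase-tagged T7 phage lysates were cleared by centrifugation and filtration, then incubated with liganded beads blocked with excess biotin and SeaBlock/1% BSA/0.05% Tween 20/1 mM DTT buffer plus test compound. Phage retained on beads was eluted and quantified by quantitative PCR.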"}, "[2]": {"molecular_target": "T2, RAF1 (Homo sapiens, UniProt P04049)", "T2 construct": "host or cells: E. coli host derived from BL21, T7 phage display", "outline": "as §1"}, "[3]": {"molecular_target": "T3, TNIK (Homo sapiens, UniProt Q9UKE5)", "T3 construct": "host or cells: E. coli host derived from BL21, T7 phage", "outline": "as §1"}, "[4]": {"molecular_target": "T4, ARK5 (Homo sapiens, UniProt O60285)", "T4 construct": "host or cells: E. coli host derived from BL21", "outline": "as §1"}, "[5]": {"molecular_target": "T5, AXL (Homo sapiens, UniProt P30530)", "T5 construct": "host or cells: E. coli host derived from BL21", "outline": "as §1"}, "[6]": {"molecular_target": "T6, KIT(V559D, V654A) (Homo sapiens, UniProt P10721, V559D/V654A)", "T6 construct": "host or cells: T7 phage grown in E. coli host derived from BL21", "outline": "as §1"}, "[7]": {"molecular_target": "T7, MARK4 (Homo sapiens, UniProt Q96L34)", "T7 construct": "host or cells: E. coli host derived from the BL21 strain, infected with T7 phage", "outline": "as §1"}, "[8]": {"molecular_target": "T8, DAPK2 (Homo sapiens, UniProt Q9UIK4)", "T8 construct": "purchased Ambit Biosciences Corp (KinomeScan); host or cells: T7 phage in E. coli host derived from BL21", "outline": "as §1"}, "[9]": {"molecular_target": "T9, CSNK1G2 (Homo sapiens, UniProt P78368)", "T9 construct": "purchased Ambit Biosciences Corp (KinomeScan); host or cells: T7 phage in E. coli host derived from BL21", "T9 sequence (P78368 whole entry)": "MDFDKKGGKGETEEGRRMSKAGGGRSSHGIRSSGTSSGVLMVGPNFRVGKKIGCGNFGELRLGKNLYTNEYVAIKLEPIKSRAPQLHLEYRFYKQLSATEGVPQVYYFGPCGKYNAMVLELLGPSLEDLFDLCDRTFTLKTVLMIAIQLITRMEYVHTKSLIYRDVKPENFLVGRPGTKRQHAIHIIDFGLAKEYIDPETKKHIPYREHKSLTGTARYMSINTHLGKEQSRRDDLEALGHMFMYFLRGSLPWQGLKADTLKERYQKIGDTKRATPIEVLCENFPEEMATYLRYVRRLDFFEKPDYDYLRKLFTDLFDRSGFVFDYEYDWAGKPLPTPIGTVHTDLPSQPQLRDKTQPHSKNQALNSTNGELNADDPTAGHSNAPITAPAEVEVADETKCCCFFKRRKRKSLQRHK", "outline": "as §1"}, "[10]": {"molecular_target": "T10, EPHB2 (Homo sapiens, UniProt P29323)", "T10 construct": "purchased Ambit Biosciences Corp; host or cells: T7 phage in E. coli host derived from BL21", "outline": "as §1"}, "[11]": {"molecular_target": "T11, BRSK2 (Homo sapiens, UniProt Q8IWQ3)", "T11 construct": "host or cells: E. coli host derived from BL21", "T11 sequence (Q8IWQ3 whole entry)": "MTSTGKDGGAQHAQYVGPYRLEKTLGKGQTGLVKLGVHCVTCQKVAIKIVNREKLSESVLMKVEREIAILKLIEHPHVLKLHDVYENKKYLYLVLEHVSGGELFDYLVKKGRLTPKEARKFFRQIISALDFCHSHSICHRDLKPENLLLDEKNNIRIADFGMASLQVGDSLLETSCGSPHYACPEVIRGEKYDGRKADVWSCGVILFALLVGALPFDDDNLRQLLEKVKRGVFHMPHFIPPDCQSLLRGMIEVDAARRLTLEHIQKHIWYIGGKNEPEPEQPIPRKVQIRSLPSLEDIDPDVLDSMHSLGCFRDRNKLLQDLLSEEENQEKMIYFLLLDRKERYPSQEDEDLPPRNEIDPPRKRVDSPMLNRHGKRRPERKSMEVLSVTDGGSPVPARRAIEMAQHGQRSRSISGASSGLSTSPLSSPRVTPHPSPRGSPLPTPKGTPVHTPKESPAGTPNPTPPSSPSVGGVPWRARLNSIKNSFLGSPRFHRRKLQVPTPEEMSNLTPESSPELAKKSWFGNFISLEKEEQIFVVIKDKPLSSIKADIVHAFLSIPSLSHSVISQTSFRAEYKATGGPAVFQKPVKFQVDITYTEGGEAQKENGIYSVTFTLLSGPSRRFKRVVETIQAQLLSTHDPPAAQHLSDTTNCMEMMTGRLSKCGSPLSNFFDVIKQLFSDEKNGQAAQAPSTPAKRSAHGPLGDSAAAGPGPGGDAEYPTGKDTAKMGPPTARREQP", "outline": "as §1"}, "[12]": {"molecular_target": "T12, PRKG1 (Homo sapiens, UniProt Q13976)", "T12 construct": "host or cells: T7 phage in E. coli host derived from BL21", "outline": "as §1"}, "[13]": {"molecular_target": "T13, CSK (Homo sapiens, UniProt P41240)", "T13 construct": "host or cells: T7 phage in E. coli host derived from BL21", "outline": "as §1"}, "[14]": {"molecular_target": "T14, TAOK1 (Homo sapiens, UniProt Q7L7X3)", "T14 construct": "host or cells: T7 phage grown in E. coli (BL21-derived)", "outline": "as §1"}, "[15]": {"molecular_target": "T15, WEE2 (Homo sapiens, UniProt P0C1S8)", "T15 construct": "host or cells: E. coli host derived from BL21, T7 phage", "T15 sequence (P0C1S8 whole entry)": "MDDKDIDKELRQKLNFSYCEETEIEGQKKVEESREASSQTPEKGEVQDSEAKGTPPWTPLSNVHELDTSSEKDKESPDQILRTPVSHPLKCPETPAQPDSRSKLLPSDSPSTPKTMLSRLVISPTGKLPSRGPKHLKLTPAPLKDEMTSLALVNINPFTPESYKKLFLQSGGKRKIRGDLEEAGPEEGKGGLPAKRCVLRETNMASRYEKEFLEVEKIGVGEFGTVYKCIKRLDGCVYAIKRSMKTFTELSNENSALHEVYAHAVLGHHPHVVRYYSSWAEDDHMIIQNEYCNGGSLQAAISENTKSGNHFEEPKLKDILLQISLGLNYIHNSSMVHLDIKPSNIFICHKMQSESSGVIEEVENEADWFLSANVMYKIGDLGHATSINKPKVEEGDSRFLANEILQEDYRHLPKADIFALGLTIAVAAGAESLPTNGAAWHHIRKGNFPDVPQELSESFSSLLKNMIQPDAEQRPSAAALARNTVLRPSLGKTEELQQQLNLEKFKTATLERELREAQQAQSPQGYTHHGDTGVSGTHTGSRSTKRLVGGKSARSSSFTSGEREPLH", "outline": "as §1"}, "[16]": {"molecular_target": "T16, MAP4K4 (Homo sapiens, UniProt O95819)", "T16 construct": "host or cells: E. coli host derived from the BL21 strain, infected with T7 phage", "outline": "as §1"}, "[17]": {"molecular_target": "T17, PFTK1 (Homo sapiens, UniProt O94921)", "T17 construct": "host or cells: E. coli host derived from BL21, infected with T7 phage", "T17 sequence (O94921 whole entry)": "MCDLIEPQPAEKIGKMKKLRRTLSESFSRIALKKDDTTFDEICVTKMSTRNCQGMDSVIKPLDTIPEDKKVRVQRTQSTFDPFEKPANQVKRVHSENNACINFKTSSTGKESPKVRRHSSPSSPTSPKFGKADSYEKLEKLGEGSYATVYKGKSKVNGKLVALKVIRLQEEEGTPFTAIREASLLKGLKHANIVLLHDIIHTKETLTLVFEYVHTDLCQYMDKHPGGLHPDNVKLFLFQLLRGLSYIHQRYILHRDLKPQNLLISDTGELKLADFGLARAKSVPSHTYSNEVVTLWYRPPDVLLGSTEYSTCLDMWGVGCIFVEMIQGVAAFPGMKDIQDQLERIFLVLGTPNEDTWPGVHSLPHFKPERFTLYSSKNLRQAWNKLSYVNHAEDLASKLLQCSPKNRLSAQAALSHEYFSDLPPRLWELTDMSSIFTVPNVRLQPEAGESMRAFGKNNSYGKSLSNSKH", "outline": "as §1"}, "[18]": {"molecular_target": "T18, ACVRL1 (Homo sapiens, UniProt P37023)", "T18 construct": "host or cells: E. coli (BL21-derived), T7 phage lysate", "outline": "as §1"}, "[19]": {"molecular_target": "T19, MYLK2 (Homo sapiens, UniProt Q9H1R3)", "T19 construct": "host or cells: T7 phage grown in E. coli host derived from BL21", "outline": "as §1"}, "[20]": {"molecular_target": "T20, PRKD3 (Homo sapiens, UniProt O94806)", "T20 construct": "host or cells: T7 phage in E. coli host derived from BL21", "outline": "as §1"}, "[21]": {"molecular_target": "T21, IKK-epsilon (Homo sapiens, UniProt Q14164)", "T21 construct": "host or cells: T7 phage grown in E. coli host derived from BL21", "T21 sequence (Q14164 whole entry)": "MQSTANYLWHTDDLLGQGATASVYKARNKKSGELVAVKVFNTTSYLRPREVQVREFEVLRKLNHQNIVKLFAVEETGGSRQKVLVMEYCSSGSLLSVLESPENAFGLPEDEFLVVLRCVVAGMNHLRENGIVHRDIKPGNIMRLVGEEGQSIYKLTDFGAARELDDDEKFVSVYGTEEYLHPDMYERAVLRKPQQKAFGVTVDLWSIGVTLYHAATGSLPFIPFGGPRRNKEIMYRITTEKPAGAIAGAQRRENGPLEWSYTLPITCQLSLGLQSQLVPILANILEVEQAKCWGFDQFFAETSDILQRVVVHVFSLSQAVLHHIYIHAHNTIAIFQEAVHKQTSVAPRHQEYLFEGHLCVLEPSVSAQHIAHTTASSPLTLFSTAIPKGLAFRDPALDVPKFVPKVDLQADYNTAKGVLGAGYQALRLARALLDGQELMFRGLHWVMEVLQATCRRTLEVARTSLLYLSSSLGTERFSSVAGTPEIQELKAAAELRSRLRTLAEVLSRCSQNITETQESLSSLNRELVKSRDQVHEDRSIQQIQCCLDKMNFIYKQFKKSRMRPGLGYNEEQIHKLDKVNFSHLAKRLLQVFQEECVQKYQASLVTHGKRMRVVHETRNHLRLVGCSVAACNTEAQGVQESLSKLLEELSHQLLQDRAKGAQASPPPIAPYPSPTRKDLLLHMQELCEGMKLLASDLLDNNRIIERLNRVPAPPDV", "outline": "as §1"}, "[22]": {"molecular_target": "T22, CIT (Homo sapiens, UniProt O14578)", "T22 construct": "host or cells: T7 phage in E. coli host derived from BL21", "outline": "as §1"}, "[23]": {"molecular_target": "T23, SNARK (Homo sapiens, UniProt Q9H093)", "T23 construct": "host or cells: T7 phage grown in E. coli (BL21-derived)", "outline": "as §1"}, "[24]": {"molecular_target": "T24, TYK2(JH2domain-pseudokinase) (Homo sapiens, UniProt P29597)", "T24 construct": "TYK2(JH2domain-pseudokinase); host or cells: E. coli host derived from BL21, T7 phage", "T24 sequence (P29597 589-875 limits assumed)": "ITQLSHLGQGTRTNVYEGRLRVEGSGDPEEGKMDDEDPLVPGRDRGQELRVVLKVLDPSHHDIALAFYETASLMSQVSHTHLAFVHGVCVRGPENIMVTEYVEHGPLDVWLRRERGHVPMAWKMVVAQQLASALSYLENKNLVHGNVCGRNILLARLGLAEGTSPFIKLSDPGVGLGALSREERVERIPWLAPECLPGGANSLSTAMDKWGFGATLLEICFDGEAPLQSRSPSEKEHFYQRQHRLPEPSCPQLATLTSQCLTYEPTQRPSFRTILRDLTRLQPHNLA", "outline": "as §1"}, "[25]": {"molecular_target": "T25, TLK1 (Homo sapiens, UniProt Q9UKI8)", "T25 construct": "host or cells: E. coli host derived from BL21, T7 phage", "outline": "as §1"}, "[26]": {"molecular_target": "T26, TGFBR1 (Homo sapiens, UniProt P36897)", "T26 construct": "host or cells: T7 phage grown in E. coli (BL21-derived)", "outline": "as §1"}, "[27]": {"molecular_target": "T27, RIPK4 (Homo sapiens, UniProt P57078)", "T27 construct": "host or cells: E. coli host derived from BL21, T7 phage display", "outline": "as §1"}, "[28]": {"molecular_target": "T28, CDK2 (Homo sapiens, UniProt P24941)", "T28 construct": "host or cells: T7 phage in E. coli host derived from BL21", "outline": "as §1"}, "[29]": {"molecular_target": "T29, MST4 (Homo sapiens, UniProt Q9P289)", "T29 construct": "host or cells: T7 phage grown in E. coli host derived from BL21", "outline": "as §1"}, "[30]": {"molecular_target": "T30, IRAK3 (Homo sapiens, UniProt Q9Y616)", "T30 construct": "host or cells: T7 phage grown in E. coli host derived from BL21", "T30 sequence (Q9Y616 whole entry)": "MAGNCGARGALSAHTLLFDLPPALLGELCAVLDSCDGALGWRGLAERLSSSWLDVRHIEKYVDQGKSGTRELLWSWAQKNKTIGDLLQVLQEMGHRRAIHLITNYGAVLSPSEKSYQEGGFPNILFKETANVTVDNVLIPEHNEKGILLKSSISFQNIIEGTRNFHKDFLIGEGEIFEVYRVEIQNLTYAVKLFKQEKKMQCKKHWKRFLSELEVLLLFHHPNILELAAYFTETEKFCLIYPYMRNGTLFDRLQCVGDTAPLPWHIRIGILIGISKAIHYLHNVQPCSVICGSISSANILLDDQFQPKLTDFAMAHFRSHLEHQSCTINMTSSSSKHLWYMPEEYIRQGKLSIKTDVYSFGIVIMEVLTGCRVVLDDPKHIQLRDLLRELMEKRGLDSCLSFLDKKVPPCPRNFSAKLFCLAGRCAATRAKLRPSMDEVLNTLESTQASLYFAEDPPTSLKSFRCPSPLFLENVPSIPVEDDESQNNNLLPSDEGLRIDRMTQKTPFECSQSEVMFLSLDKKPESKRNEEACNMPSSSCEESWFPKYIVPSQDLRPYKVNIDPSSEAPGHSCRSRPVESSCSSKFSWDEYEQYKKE", "outline": "as §1"}, "[31]": {"molecular_target": "T31, PKN2 (Homo sapiens, UniProt Q16513)", "T31 construct": "host or cells: T7 phage in E. coli host derived from BL21", "outline": "as §1"}, "[32]": {"molecular_target": "T32, PRKD1 (Homo sapiens, UniProt Q15139)", "T32 construct": "host or cells: T7 phage in E. coli host derived from BL21", "T32 sequence (Q15139 whole entry)": "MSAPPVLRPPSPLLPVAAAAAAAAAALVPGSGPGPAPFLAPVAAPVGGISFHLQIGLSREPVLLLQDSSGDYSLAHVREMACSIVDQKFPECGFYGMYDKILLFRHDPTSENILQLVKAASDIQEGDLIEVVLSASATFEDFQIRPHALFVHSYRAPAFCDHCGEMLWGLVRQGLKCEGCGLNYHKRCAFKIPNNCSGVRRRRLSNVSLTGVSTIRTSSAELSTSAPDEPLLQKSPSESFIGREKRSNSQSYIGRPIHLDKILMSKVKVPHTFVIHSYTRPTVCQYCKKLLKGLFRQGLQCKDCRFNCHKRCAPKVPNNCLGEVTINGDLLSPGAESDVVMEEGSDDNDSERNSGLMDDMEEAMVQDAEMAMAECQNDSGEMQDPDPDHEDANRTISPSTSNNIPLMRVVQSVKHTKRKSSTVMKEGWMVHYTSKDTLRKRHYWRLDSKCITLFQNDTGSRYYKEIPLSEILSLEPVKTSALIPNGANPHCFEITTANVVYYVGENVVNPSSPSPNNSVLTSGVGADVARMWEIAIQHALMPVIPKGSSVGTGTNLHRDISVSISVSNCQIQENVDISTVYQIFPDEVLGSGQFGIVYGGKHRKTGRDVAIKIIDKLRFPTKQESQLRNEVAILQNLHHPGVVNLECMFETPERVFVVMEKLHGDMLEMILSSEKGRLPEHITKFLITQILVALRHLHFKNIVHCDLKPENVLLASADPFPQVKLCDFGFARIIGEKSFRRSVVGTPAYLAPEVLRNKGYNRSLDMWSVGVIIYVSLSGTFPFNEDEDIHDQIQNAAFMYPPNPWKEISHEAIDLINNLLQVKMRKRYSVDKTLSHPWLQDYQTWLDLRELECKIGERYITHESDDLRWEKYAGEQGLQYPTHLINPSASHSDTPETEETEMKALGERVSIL", "outline": "as §1"}, "[33]": {"molecular_target": "T33, DDR1 (Homo sapiens, UniProt Q08345)", "T33 construct": "purchased Ambit Biosciences Corp (KinomeScan); host or cells: T7 phage in E. coli host derived from BL21", "outline": "as §1"}, "[34]": {"molecular_target": "T34, PDGFRA (Homo sapiens, UniProt P16234)", "T34 construct": "host or cells: E. coli host derived from BL21, infected with T7 phage", "outline": "as §1"}}, "data": [{"molecule": "C#Cc1cccc(Nc2ncnc3cc(OC)c(OCCCN4CCOCC4)cc23)c1", "note": "[NRC-2694, N-(3-ethynylphenyl)-7-methoxy-6-[3-(4-morpholinyl)propoxy]-4-quinazolinamine]", "values": [{"measurement": "remaining binding at 10 µM", "setting": "[1]", "result": 40, "unit": "%"}, {"measurement": "remaining binding at 10 µM", "setting": "[2]", "result": 100, "unit": "%"}, {"measurement": "remaining binding at 10 µM", "setting": "[3]", "result": 17, "unit": "%"}, {"measurement": "remaining binding at 10 µM", "setting": "[4]", "result": 29, "unit": "%"}, {"measurement": "remaining binding at 10 µM", "setting": "[5]", "result": 25, "unit": "%"}, {"measurement": "remaining binding at 10 µM", "setting": "[6]", "result": 47, "unit": "%"}, {"measurement": "remaining binding at 10 µM", "setting": "[7]", "result": 100, "unit": "%"}, {"measurement": "remaining binding at 10 µM", "setting": "[8]", "result": 61, "unit": "%"}, {"measurement": "remaining binding at 10 µM", "setting": "[9]", "result": 76, "unit": "%"}, {"measurement": "remaining binding at 10 µM", "setting": "[10]", "result": 83, "unit": "%"}, {"measurement": "remaining binding at 10 µM", "setting": "[11]", "result": 33, "unit": "%"}, {"measurement": "remaining binding at 10 µM", "setting": "[12]", "result": 75, "unit": "%"}, {"measurement": "remaining binding at 10 µM", "setting": "[13]", "result": 53, "unit": "%"}, {"measurement": "remaining binding at 10 µM", "setting": "[14]", "result": 54, "unit": "%"}, {"measurement": "remaining binding at 10 µM", "setting": "[15]", "result": 53, "unit": "%"}, {"measurement": "remaining binding at 10 µM", "setting": "[16]", "result": 20, "unit": "%"}, {"measurement": "remaining binding at 10 µM", "setting": "[17]", "result": 71, "unit": "%"}, {"measurement": "remaining binding at 10 µM", "setting": "[18]", "result": 91, "unit": "%"}, {"measurement": "remaining binding at 10 µM", "setting": "[19]", "result": 4.8, "unit": "%"}, {"measurement": "remaining binding at 10 µM", "setting": "[20]", "result": 7.2, "unit": "%"}, {"measurement": "remaining binding at 10 µM", "setting": "[21]", "result": 75, "unit": "%"}, {"measurement": "remaining binding at 10 µM", "setting": "[22]", "result": 5, "unit": "%"}, {"measurement": "remaining binding at 10 µM", "setting": "[23]", "result": 19, "unit": "%"}, {"measurement": "remaining binding at 10 µM", "setting": "[24]", "result": 23, "unit": "%"}, {"measurement": "remaining binding at 10 µM", "setting": "[25]", "result": 77, "unit": "%"}, {"measurement": "remaining binding at 10 µM", "setting": "[26]", "result": 83, "unit": "%"}, {"measurement": "remaining binding at 10 µM", "setting": "[27]", "result": 96, "unit": "%"}, {"measurement": "remaining binding at 10 µM", "setting": "[28]", "result": 94, "unit": "%"}, {"measurement": "remaining binding at 10 µM", "setting": "[29]", "result": 29, "unit": "%"}, {"measurement": "remaining binding at 10 µM", "setting": "[30]", "result": 25, "unit": "%"}, {"measurement": "remaining binding at 10 µM", "setting": "[31]", "result": 31, "unit": "%"}, {"measurement": "remaining binding at 10 µM", "setting": "[32]", "result": 9.6, "unit": "%"}, {"measurement": "remaining binding at 10 µM", "setting": "[33]", "result": 39, "unit": "%"}, {"measurement": "remaining binding at 10 µM", "setting": "[34]", "result": 50, "unit": "%"}]}]}
